Measurements taken from publication PMC5051147, “Ester Hydrolysis Differentially Reduces Aconitine-Induced Anti-hypersensitivity and Acute Neurotoxicity: Involvement of Spinal Microglial Dynorphin Expression and Implications for Aconitum Processing” (Frontiers in Pharmacology, 2016).

What was measured:
Format in all cases: in vivo, rat
[1] = test system: heat hyperalgesia in spinal L5/L6 nerve–ligated neuropathic rats; assay: Heat hyperalgesia (radiant heat paw withdrawal latency) after intrathecal injection in spinal nerve-ligated neuropathic rats
Experimental: (§1) An 18-cm polyethylene catheter (PE-10: 0.28-mm inner diameter and 0.61-mm outer diameter, Clay Adams, Parsippany, NJ, USA) with a volume of 13 μL was inserted into the lumbar level of the spinal cord as described elsewhere under inhalational isoflurane anesthesia (4% for induction and 1% for maintenance) run by an anesthesia meter (Ugo Basile Gas Anesthesia System, Comerio, Italy). Two days after recovery from anesthesia, the placement of the catheter in the spinal cord was verified by administration of 4% lidocaine (10 μL, followed by 15 μL of saline for flushing). Rats that had no motor impairment after placement of the intrathecal catheter were considered for the study, and rats that developed immediate bilateral paralysis of the hindlimbs after intrathecal administration of lidocaine were selected for the study. For intrathecal administration of the control and test articles, 10 μL of each drug was injected with a 50-μL microinjector (Shanghai Anting Micro-Injector Factory, Shanghai, China) and was flushed with 15 μL of normal saline solution.
To induce hypersensitivity to neuropathic pain, the rats were subjected to spinal nerve ligation as previously described [Kim and Chung (1992)] and [Zhang et al. (2013)]. Unilateral ligation of the L5 and L6 spinal nerves was performed under inhalational isoflurane anesthesia (4% for induction and 1% for maintenance) run by an anesthesia meter (Ugo Basile Gas Anesthesia System). The left L5 and L6 spinal nerves were isolated and tightly ligated with 6-0 silk thread. After ligation, the wound was sutured and the rats were returned to their home cages for recovery. After spinal nerve ligation, only those rats with marked unilateral allodynia to mechanical stimulation (i.e., a hindpaw withdrawal threshold of less than 8 g on the operated side) and with no major impairment were included in the study. Drug testing started 2–4 weeks after spinal nerve ligation.
To assess heat hyperalgesia, the rats were put in a plexiglass box on an elevated glass surface. After an adaptation period of at least 30 min, radiant heat was applied to the plantar medial surface of each hindpaw. The hindpaw withdrawal latency was measured with a Model 390G Plantar Test Analgesia Meter (IITC Life Science Inc.). To prevent tissue damage, the latency cutoff was set at 30 s. The paw withdrawal latency was defined as the time from the onset of radiant heat application to the withdrawal of the hindpaw. Both hindpaws were tested independently three times with a 5-min interval between trials. The result for each test was calculated as the mean of the three repeated measurements.
The percentage of maximal possible effect (% MPE) was calculated using the following formula: (postdrug threshold in ipsilateral hindlimb – baseline threshold in ipsilateral hindlimb)/(baseline threshold in contralateral hindlimb – baseline threshold in ipsilateral hindlimb) × 100 ([Bowersox et al., 1996]). A % MPE value near 100 indicates normal mechanical thresholds (i.e., near contralateral thresholds), and a value near 0 indicates allodynia. For the dose-response curve analysis, the parameters (i.e., minimum effect; Emax, median effective concentration or dose, or median toxic or lethal dose [EC50, ED50, TD50, or LD50], and Hill coefficient [n]) were calculated from the individual dose-response curves using the Prism program (version 5.01, GraphPad Software, San Diego, CA, USA). […]

[2] = test system: pain hypersensitivity in spinal nerve-ligated neuropathic rats; assay: Anti-hypersensitivity, normalized (anti-allodynia and anti-hyperalgesia ED50 averaged); conditions: intrathecal; average of allodynia and hyperalgesia ED50
Experimental: (§2) The percentage of maximal possible effect (% MPE) was calculated using the following formula: (postdrug threshold in ipsilateral hindlimb – baseline threshold in ipsilateral hindlimb)/(baseline threshold in contralateral hindlimb – baseline threshold in ipsilateral hindlimb) × 100 ([Bowersox et al., 1996]). A % MPE value near 100 indicates normal mechanical thresholds (i.e., near contralateral thresholds), and a value near 0 indicates allodynia. For the dose-response curve analysis, the parameters (i.e., minimum effect; Emax, median effective concentration or dose, or median toxic or lethal dose [EC50, ED50, TD50, or LD50], and Hill coefficient [n]) were calculated from the individual dose-response curves using the Prism program (version 5.01, GraphPad Software, San Diego, CA, USA). To determine the parameters of the dose-response curves, the values of response (Y) were fitted by non-linear least-squares curves to the relation Y = a + bx, where x = [D]^n/(ED50^n + [D]^n), [C]^n/(EC50^n + [C]^n), [D]^n/(TD50^n + [D]^n) or [D]^n/(LD50^n + [D]^n), to give each value of ED50, EC50, TD50, or LD50 and b (Emax) yielding a minimum residual sum of squares of deviations from the theoretical curve ([Wang and Pang, 1993]).
Table 1 summarizes the ED50 values in mole base for aconitine, benzolyaconine, and aconine to block pain hypersensitivity. Because anti-allodynia and anti-hyperalgesia were closely correlated, their ED50 values were averaged to obtain a normalized ED50 for anti-hypersensitivity. The ED50 ratios for aconitine and benzolyaconine to block mechanical allodynia and heat hyperalgesia were 1:92 and 1:110, with a normalized ED50 ratio of 1:102.

[3] = test system: spinal nerve–ligated neuropathic rats; assay: Acute spinal neurotoxicity (flaccid paralysis and death) after intrathecal injection
Experimental: as §1
Survival and abnormal motor-blockade behaviors, including asthma, abdominal breathing, locomotion difficulty, and paralysis, were continuously monitored for 24 h after the treatment, with special attention given during the first 4 h. Paralysis was defined as an inability to negotiate a 60-degree inclined plane ([Durant and Yaksh, 1986]). Death was defined as respiratory arrest over a period of 5 min. The paralysis and mortality rates and their latencies were quantitatively recorded and tabulated.
as §2

[4] = intrathecal bolus, observed 24 h

CCN1C[C@]2(COC)[C@H](O)C[C@H](OC)[C@@]34[C@@H]5C[C@@]6(O)[C@H](OC(=O)c7ccccc7)[C@@H]5[C@@](OC(C)=O)([C@@H]([C@H](OC)[C@H]23)[C@@H]14)[C@@H](O)[C@@H]6OC [Aconitine, aconitine]
Emax, blockade of thermal hyperalgesia ([1]; 1 h after injection): 100 % MPE
ED50, blockade of thermal hyperalgesia ([1]; % MPE at 1 h after injection): 32 pmol
Normalized ED50 for anti-hypersensitivity [2]: 35 pmol
Duration of toxic motor-blockade behavior ([3]; intrathecal): 5 to 10 min
Latency of toxic motor-blockade behavior ([3]; intrathecal): 2 to 3 min
Death latency ([3]; intrathecal 0.25 μg): 13.6 min
Paralysis latency ([3]; intrathecal 0.25 μg): 2.3 ± 0.7 min
Death latency ([3]; intrathecal 0.32 μg): 12.4 ± 2.3 min
Paralysis latency ([3]; intrathecal 0.32 μg): 2.5 ± 0.8 min
Death latency ([3]; intrathecal 0.4 μg): 10.0 ± 3.3 min
Paralysis latency ([3]; intrathecal 0.4 μg): 2.6 ± 1.2 min
LD50 (mortality) [3, 4]: 0.6 nmol
TD50 (for flaccid paralysis) [3, 4]: 0.4 nmol
Normalized TD50 ([3]; intrathecal, average of TD50 (paralysis) and LD50): 0.5 nmol
